Target: T1, Cbl-b (Homo sapiens, UniProt Q13191)
T1 construct: Cbl-b-HiBit KI Jurkat Cells were purchased from Promega; host or cells: Cbl-b-HiBiT knock-in Jurkat cells
Assay: Cbl-b Degradation Method B (Nano-Glo HiBiT lytic detection)
Type: cell-based
Details: Cbl-b-HiBit KI Jurkat Cells, incubated at least 6-24 hours; for DC50: half maximal degradation, read-out: Cbl-b Degredation Method B IC50; for Dmax: maximum degradation observed, read-out: Cbl-b Degredation Method B Dmax (%)
Method in brief: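 Cbl-b-HiBiT knock-in Jurkat cells (20,000/well) were treated after ~24 h plating with an 11-point 1:3 series for 6-24 h at 37° C. Remaining Cbl-b measured by Nano-Glo HiBiT lytic luminescence. DC50 and Dmax expressed as % of control.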

T1 sequence (Q13191 whole entry): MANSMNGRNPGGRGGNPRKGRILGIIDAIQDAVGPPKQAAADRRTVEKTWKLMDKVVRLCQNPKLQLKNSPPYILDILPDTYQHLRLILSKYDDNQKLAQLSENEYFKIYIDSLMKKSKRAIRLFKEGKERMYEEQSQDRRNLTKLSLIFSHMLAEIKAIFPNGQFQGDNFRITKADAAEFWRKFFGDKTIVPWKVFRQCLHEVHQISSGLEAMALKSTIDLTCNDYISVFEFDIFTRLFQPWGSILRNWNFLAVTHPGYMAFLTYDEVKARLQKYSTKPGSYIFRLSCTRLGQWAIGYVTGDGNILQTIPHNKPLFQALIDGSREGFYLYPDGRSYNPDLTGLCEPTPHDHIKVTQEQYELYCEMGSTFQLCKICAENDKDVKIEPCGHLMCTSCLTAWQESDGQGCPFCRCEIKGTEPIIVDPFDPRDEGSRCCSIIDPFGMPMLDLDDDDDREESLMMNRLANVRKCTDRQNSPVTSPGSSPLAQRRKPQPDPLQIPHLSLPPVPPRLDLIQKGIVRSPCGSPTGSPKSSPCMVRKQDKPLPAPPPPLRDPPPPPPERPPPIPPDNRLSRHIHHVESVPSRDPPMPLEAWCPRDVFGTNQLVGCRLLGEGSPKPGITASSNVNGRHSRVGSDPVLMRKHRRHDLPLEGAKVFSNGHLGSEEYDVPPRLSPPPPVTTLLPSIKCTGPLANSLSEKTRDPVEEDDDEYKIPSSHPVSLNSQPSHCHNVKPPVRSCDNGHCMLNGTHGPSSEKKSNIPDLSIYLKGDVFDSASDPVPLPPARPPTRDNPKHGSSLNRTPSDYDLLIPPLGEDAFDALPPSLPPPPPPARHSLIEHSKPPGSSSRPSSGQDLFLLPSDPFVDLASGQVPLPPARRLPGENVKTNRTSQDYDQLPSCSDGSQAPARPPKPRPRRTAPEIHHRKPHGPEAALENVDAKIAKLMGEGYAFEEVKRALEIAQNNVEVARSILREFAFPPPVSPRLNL

| DC50 | Dmax | SMILES |
| --- | --- | --- |
| < 5 nM | 35 to 70% | CC1c2nc(N3CCC(O[C@H]4CC[C@H](CN5CCN(Cc6cc7c(c(C(F)(F)F)c6)CN(c6cccc(C8(Cc9nncn9C)COC8)c6)C7=O)C(C)(C)C5)CC4)CC3)ccc2C(=O)N1C1CCC(=O)NC1=O (relative stereo) [Example 246, rel-3-[7-methyl-5-oxo-2-(4-{[(1r,4r)-4-[(3,3-dimethyl-4-{[2-(3-{3-[(4-methyl-4H-1,2,4-triazol-3-yl)methyl]oxetan-3-yl}phenyl)-3-oxo-7-(trifluoromethyl)-2,3-dihydro-1H-isoindol-5-yl]methyl}piperazin-1-yl)methyl]cyclohexyl]oxy}piperidin-1-yl)-5H,6H,7H-pyrrolo[3,4-b]pyridin-6-yl]piperidine-2,6-dione] |
| > 500 nM |  | Cn1cnnc1CC1(c2cccc(N3Cc4c(cc(CN5CC(CN6CCN(C7CCN(c8ccc9c(c8)C(=O)N(C8CCC(=O)NC8=O)C9=O)CC7)CC6)C5)cc4C(F)(F)F)C3=O)c2)COC1 (centres unmarked) [Example 67, 2-(2,6-dioxopiperidin-3-yl)-5-(4-{4-[(1-{[2-(3-{3-[(4-methyl-4H-1,2,4-triazol-3-yl)methyl]oxetan-3-yl}phenyl)-3-oxo-7-(trifluoromethyl)-2,3-dihydro-1H-isoindol-5-yl]methyl}azetidin-3-yl)methyl]piperazin-1-yl}piperidin-1-yl)-2,3-dihydro-1H-isoindole-1,3-dione] |
| > 500 nM |  | Cn1cnnc1CC1(c2cccc(N3Cc4c(cc(CN5CC(CC6CN(c7ccc8c(c7)C(=O)N(C7CCC(=O)NC7=O)C8=O)C6)C5)cc4C(F)(F)F)C3=O)c2)COC1 (centres unmarked) [Example 58, 2-(2,6-dioxopiperidin-3-yl)-5-{3-[(1-{[2-(3-{3-[(4-methyl-4H-1,2,4-triazol-3-yl)methyl]oxetan-3-yl}phenyl)-3-oxo-7-(trifluoromethyl)-2,3-dihydro-1H-isoindol-5-yl]methyl}azetidin-3-yl)methyl]azetidin-1-yl}-2,3-dihydro-1H-isoindole-1,3-dione] |
| > 500 nM |  | CC1c2nc(N3CCC(CN4CCN(CC5CCN(Cc6cc7c(c(C(F)(F)F)c6)CN(c6cccc([C@]8(Cc9nncn9C)C[C@@H](C#N)C8)c6)C7=O)CC5)C(C)(C)C4)CC3)ccc2C(=O)N1C1CCC(=O)NC1=O (some centres unmarked) [Example 287, (1r,3r)-3-(3-{6-[(4-{[4-({1-[6-(2,6-dioxopiperidin-3-yl)-7-methyl-5-oxo-5H,6H,7H-pyrrolo[3,4-b]pyridin-2-yl]piperidin-4-yl}methyl)-2,2-dimethylpiperazin-1-yl]methyl}piperidin-1-yl)methyl]-1-oxo-4-(trifluoromethyl)-2,3-dihydro-1H-isoindol-2-yl}phenyl)-3-[(4-methyl-4H-1,2,4-triazol-3-yl)methyl]cyclobutane-1-carbonitrile] |
| > 500 nM |  | C[C@@H]1CN(CC2CCC(OC3CCN(c4ccc5c(n4)[C@@H](C)N(C4CCC(=O)NC4=O)C5=O)CC3)CC2)CCN1Cc1cc2c(c(C(F)(F)F)c1)CN(c1cccc([C@]3(Cc4nncn4C)C[C@H](C#N)C3)c1)C2=O (single isomer, unassigned) [Example 240, (1rs&,3rs&)-3-[3-(6-{[(2R)-2-methyl-4-{[(1rs,4rs)-4-({1-[(7R*)-6-(2,6-dioxopiperidin-3-yl)-7-methyl-5-oxo-5H,6H,7H-pyrrolo[3,4-b]pyridin-2-yl]piperidin-4-yl}oxy)cyclohexyl]methyl}piperazin-1-yl]methyl}-1-oxo-4-(trifluoromethyl)-2,3-dihydro-1H-isoindol-2-yl)phenyl]-3-[(4-methyl-4H-1,2,4-triazol-3-yl)methyl]cyclobutane-1-carbonitrile] |
| > 500 nM |  | Cn1cnnc1CC1(c2cccc(-n3cc4c(C(F)(F)F)cc(CN5CCC[C@H](CN6CCC[C@@H](CN7CCN(c8ccc9c(c8F)CN(C8CCC(=O)NC8=O)C9=O)CC7)C6)C5)cc4n3)c2)COC1 (stereo partly drawn) [Example 257, 3-[4-fluoro-5-(4-{[(3R)-1-{[(3R)-1-{[2-(3-{3-[(4-methyl-4H-1,2,4-triazol-3-yl)methyl]oxetan-3-yl}phenyl)-4-(trifluoromethyl)-2H-indazol-6-yl]methyl}piperidin-3-yl]methyl}piperidin-3-yl]methyl}piperazin-1-yl)-1-oxo-2,3-dihydro-1H-isoindol-2-yl]piperidine-2,6-dione] |
| > 500 nM |  | Cn1cnnc1CC1(c2cccc(N3Cc4c(cc(CN5CCC6(CC5)CN(c5cccc7c5CN(C5CCC(=O)NC5=O)C7=O)C6)cc4C(F)(F)F)C3=O)c2)COC1 (centres unmarked) [Example 42, 3-[4-(7-{[2-(3-{3-[(4-methyl-4H-1,2,4-triazol-3-yl)methyl]oxetan-3-yl}phenyl)-3-oxo-7-(trifluoromethyl)-2,3-dihydro-1H-isoindol-5-yl]methyl}-2,7-diazaspiro[3.5]nonan-2-yl)-1-oxo-2,3-dihydro-1H-isoindol-2-yl]piperidine-2,6-dione] |
| > 500 nM |  | Cn1cnnc1CC1(c2cccc(N3Cc4c(cc(CN5CCC(CCCN6CCN(c7ccc8c(c7)C(=O)N(C7CCC(=O)NC7=O)C8=O)CC6)CC5)cc4C(F)(F)F)C3=O)c2)COC1 (centres unmarked) [Example 61, 2-(2,6-dioxopiperidin-3-yl)-5-{4-[3-(1-{[2-(3-{3-[(4-methyl-4H-1,2,4-triazol-3-yl)methyl]oxetan-3-yl}phenyl)-3-oxo-7-(trifluoromethyl)-2,3-dihydro-1H-isoindol-5-yl]methyl}piperidin-4-yl)propyl]piperazin-1-yl}-2,3-dihydro-1H-isoindole-1,3-dione] |
| 5 to 50 nM | < 35% | Cn1cnnc1C[C@]1(c2cccc(N3Cc4c(cc(CN5CCN(C[C@H]6CC[C@H](OC7CCN(c8cccc(C(=O)NC9CCC(=O)NC9=O)c8)CC7)CC6)CC5)cc4C(F)(F)F)C3=O)c2)C[C@H](C#N)C1 (some centres unmarked) [Example 198, N-(2,6-dioxopiperidin-3-yl)-3-(4-{[(1r,4r)-4-({4-[(3-oxo-2-{3-[(1r,3r)-3-cyano-1-[(4-methyl-4H-1,2,4-triazol-3-yl)methyl]cyclobutyl]phenyl}-7-(trifluoromethyl)-2,3-dihydro-1H-isoindol-5-yl)methyl]piperazin-1-yl}methyl)cyclohexyl]oxy}piperidin-1-yl)benzamide] |
| > 500 nM |  | Cn1cnnc1C[C@]1(c2cccc(N3Cc4c(cc(CN5CCN(C[C@H]6CC[C@H](OC7CCN(c8ccc(F)c(C(=O)NC9CCC(=O)NC9=O)c8)CC7)CC6)CC5)cc4C(F)(F)F)C3=O)c2)C[C@H](C#N)C1 (some centres unmarked) [Example 202, N-(2,6-dioxopiperidin-3-yl)-2-fluoro-5-(4-{[(1r,4r)-4-({4-[(3-oxo-2-{3-[(1r,3r)-3-cyano-1-[(4-methyl-4H-1,2,4-triazol-3-yl)methyl]cyclobutyl]phenyl}-7-(trifluoromethyl)-2,3-dihydro-1H-isoindol-5-yl)methyl]piperazin-1-yl}methyl)cyclohexyl]oxy}piperidin-1-yl)benzamide] |

| SMILES | DC50 | Dmax |
| --- | --- | --- |
| CC1c2nc(N3CCC(OC4CCC(CN5CC6CCC(C5)N6c5cc6c(c(C(F)(F)F)c5)CN(c5cccc(C7(Cc8nncn8C)CC(C#N)C7)c5)C6=O)CC4)CC3)ccc2C(=O)N1C1CCC(=O)NC1=O (centres unmarked) [Example 183, (1r,3r)-3-[(4-methyl-4H-1,2,4-triazol-3-yl)methyl]-3-{3-[1-oxo-6-(3-{[(1r,4r)-4-({1-[6-(2,6-dioxopiperidin-3-yl)-7-methyl-5-oxo-5H,6H,7H-pyrrolo[3,4-b]pyridin-2-yl]piperidin-4-yl}oxy)cyclohexyl]methyl}-3,8-diazabicyclo[3.2.1]octan-8-yl)-4-(trifluoromethyl)-2,3-dihydro-1H-isoindol-2-yl]phenyl}cyclobutane-1-carbonitrile] | 5 to 50 nM | < 35% |

— patent US20260184710A1, “CASITAS B-LINEAGE LYMPHOMA PROTOONCOGENE B (CBL-B) DEGRADING COMPOUNDS AND ASSOCIATED METHODS OF USE” (Arvinas Operations, Inc., priority 2022, published 2026)
